{"source": "patent US6846921B2", "about": "“Chimeric antisense oligonucleotides and cell transfecting formulations thereof” (Chiron Corporation, priority 1999, dated 2005)", "key": {"CHK2 mRNA": {"system": "CHK2 mRNA", "experiment": "CHK2 mRNA knockout after transfection of chimeric antisense oligonucleotide", "format": "cell-based, human", "conditions": "HT1080 cells, Lipitoid 1 for transfection, incubated 24 hours, approximate level", "experimental": "(§1) With the exception of the mTyr oligo (SEQ ID NO: 17-18), which was transfected into B16 melanoma cells, all oligos shown in Table 1 were transfected into HT1080 cells, using “Lipitoid 1” (see below) for transfection, and incubated for 24 hours. The table gives the approximate level of mRNA knockout observed in each case.\n(§2) For each transfection mixture, a carrier molecule, preferably a lipitoid or cholesteroid, was prepared to a working concentration of 0.5 mM in water, sonicated to yield a uniform solution, and filtered through a 0.45 μm PVDF membrane. The antisense oligonucleotide was prepared to a working concentration of 100 μM in sterile Millipore water. […]\n(§3) The level of target mRNA was quantitated using the Roche LightCycler™ real-time PCR machine. […]\n(§4) An amplification mixture was prepared by mixing in the following order: 1×PCR buffer II, 3 mM MgCl2, 140 μM each dNTP, 0.175 pmol each oligo, 1:50,000 dil of SYBR® Green, 0.25 mg/ml BSA, 1 unit Taq polymerase, and H2O to 20 μl. (PCR buffer II is available in 10×concentration from Perkin-Elmer (Norwalk, Conn.). In 1×concentration it contains 10 mM Tris pH 8.3 and 50 mM KCl. SYBR® Green (Molecular Probes, Eugene, Oreg.) is a dye which fluoresces when bound to double stranded DNA. As double stranded PCR product is produced during amplification, the fluorescence from SYBR® Green increases.) […]"}, "MMP9 mRNA": {"system": "MMP9 mRNA", "experiment": "MMP9 mRNA knockout after transfection of chimeric antisense oligonucleotide", "format": "cell-based, human", "conditions": "HT1080 cells, Lipitoid 1 for transfection, incubated 24 hours, approximate level", "experimental": "as §1, §2, §3, §4"}, "p110β mRNA": {"system": "p110β mRNA", "experiment": "p110β mRNA knockout after transfection of chimeric antisense oligonucleotide", "format": "cell-based, human", "conditions": "HT1080 cells, Lipitoid 1 for transfection, incubated 24 hours, approximate level", "experimental": "as §1, §2, §3, §4"}, "PDK1 mRNA": {"system": "PDK1 mRNA", "experiment": "PDK1 mRNA knockout after transfection of chimeric antisense oligonucleotide", "format": "cell-based, human", "conditions": "HT1080 cells, Lipitoid 1 for transfection, incubated 24 hours, approximate level", "experimental": "as §1, §2, §3, §4"}, "MMP2 mRNA": {"system": "MMP2 mRNA", "experiment": "MMP2 mRNA knockout after transfection of chimeric antisense oligonucleotide", "format": "cell-based, human", "conditions": "HT1080 cells, Lipitoid 1 for transfection, incubated 24 hours, approximate level", "experimental": "as §1, §2, §3, §4"}, "UPAR mRNA": {"system": "UPAR mRNA", "experiment": "UPAR mRNA knockout after transfection of chimeric antisense oligonucleotide", "format": "cell-based, human", "conditions": "HT1080 cells, Lipitoid 1 for transfection, incubated 24 hours, approximate level", "experimental": "as §1, §2, §3, §4"}, "AKT2 mRNA": {"system": "AKT2 mRNA", "experiment": "AKT2 mRNA knockout after transfection of chimeric antisense oligonucleotide", "format": "cell-based, human", "conditions": "HT1080 cells, Lipitoid 1 for transfection, incubated 24 hours, approximate level", "experimental": "as §1, §2, §3, §4"}, "p110α mRNA": {"system": "p110α mRNA", "experiment": "p110α mRNA knockout after transfection of chimeric antisense oligonucleotide", "format": "cell-based, human", "conditions": "HT1080 cells, Lipitoid 1 for transfection, incubated 24 hours, approximate level", "experimental": "as §1, §2, §3, §4"}, "mTyr mRNA": {"system": "mTyr mRNA", "experiment": "mTyr mRNA knockout after transfection into B16 melanoma cells", "format": "cell-based", "conditions": "approximate level", "experimental": "as §1, §2, §3, §4"}}, "note": "{5'-OMe-dT} = O-methyl thymidine blocking nucleotide (W), phosphodiester-linked; {3'-3'N} = to-3' linked nucleotide blocking group (Z), phosphodiester-linked; d = 2'-deoxy (DNA); m = 2'-O-methyl", "data": [{"substance": "4 (GACCCACTTCCCTGAAAATCCGAAA; antisense; sugars from the 5' end m7 d11 m7, 5' {5'-OMe-dT}, 3' {3'-3'N}, backbone and T or U not given here; 2'-OMe blocks are phosphodiester, DNA gap is phosphorothioate) [compound 4]", "values": [{"measurement": "mRNA knockout", "setting": "CHK2 mRNA", "result": ">90", "unit": "%"}]}, {"substance": "16 (GCTTTCTCTCGGTACTGGAAGACGT; antisense; sugars from the 5' end m7 d11 m7, 5' {5'-OMe-dT}, 3' {3'-3'N}, backbone and T or U not given here; 2'-OMe blocks are phosphodiester, DNA gap is phosphorothioate) [compound 16]", "values": [{"measurement": "mRNA knockout", "setting": "MMP9 mRNA", "result": ">80", "unit": "%"}]}, {"substance": "21 (TGATGAAGAGATTCCCATGCCGTCG; antisense; sugars from the 5' end m7 d11 m7, 5' {5'-OMe-dT}, 3' {3'-3'N}, backbone and T or U not given here; 2'-OMe blocks are phosphodiester, DNA gap is phosphorothioate) [compound 21]", "values": [{"measurement": "mRNA knockout", "setting": "p110β mRNA", "result": ">90", "unit": "%"}]}, {"substance": "23 (CTGTGAGCAACAGCTGTCGTCGTCT; antisense; sugars from the 5' end m7 d11 m7, 5' {5'-OMe-dT}, 3' {3'-3'N}, backbone and T or U not given here; 2'-OMe blocks are phosphodiester, DNA gap is phosphorothioate) [compound 23]", "values": [{"measurement": "mRNA knockout", "setting": "PDK1 mRNA", "result": ">90", "unit": "%"}]}, {"substance": "14 (GAAGCCCCACTTGCGGTCGTCAT; sugars from the 5' end m7 d9 m7, 5' {5'-OMe-dT}, 3' {3'-3'N}, backbone and T or U not given here; 2'-OMe blocks are phosphodiester, DNA gap is phosphorothioate) [compound 14]", "values": [{"measurement": "mRNA knockout", "setting": "MMP2 mRNA", "result": ">80", "unit": "%"}]}, {"substance": "24 (GGCAGTCATTAGCAGGGTGATGGTG; antisense; sugars from the 5' end m7 d11 m7, 5' {5'-OMe-dT}, 3' {3'-3'N}, backbone and T or U not given here; 2'-OMe blocks are phosphodiester, DNA gap is phosphorothioate) [compound 24]", "values": [{"measurement": "mRNA knockout", "setting": "UPAR mRNA", "result": ">80", "unit": "%"}]}, {"substance": "2 (GTTCCCTTGCCAAGGAGTTTGAGAT; antisense; sugars from the 5' end m7 d11 m7, 5' {5'-OMe-dT}, 3' {3'-3'N}, backbone and T or U not given here; 2'-OMe blocks are phosphodiester, DNA gap is phosphorothioate) [compound 2]", "values": [{"measurement": "mRNA knockout", "setting": "AKT2 mRNA", "result": ">85", "unit": "%"}]}, {"substance": "19 (ATCTGGTCGCCTCATTTGCTCAACT; antisense; sugars from the 5' end m7 d11 m7, 5' {5'-OMe-dT}, 3' {3'-3'N}, backbone and T or U not given here; 2'-OMe blocks are phosphodiester, DNA gap is phosphorothioate) [compound 19]", "values": [{"measurement": "mRNA knockout", "setting": "p110α mRNA", "result": ">95", "unit": "%"}]}, {"substance": "17 (AACCCATGAAGTTGCCTGAGCACTG; antisense; sugars from the 5' end m7 d11 m7, 5' {5'-OMe-dT}, 3' {3'-3'N}, backbone and T or U not given here; 2'-OMe blocks are phosphodiester, DNA gap is phosphorothioate) [compound 17]", "values": [{"measurement": "mRNA knockout", "setting": "mTyr mRNA", "result": ">90", "unit": "%"}]}]}
